The subject of data set [1] is Dengue NGC virus. Nature of the data set: Dengue NGC live virus infection in K562 cells, FACS (anti-E/anti-NS1 double positive cells). Type of data set: cell-based. Conditions: for EC50: read-out: EC50 (effective concentration of 50% inhibition of virus growth); for inhibition of viral growth / effect on infection: K562 infection assay; for percent Dengue positive cells (E and NS1 double positive): K562, Dengue NGC, 48 hours, 4.8% positive without treatment. As for the experimental part:
(§1) For compound testing, K562 infection system was used. […] The cell viability is measured by Celltiter Glo.
(§2) To determine the EC50 (effective concentration of 50% inhibition of virus growth) and the cytotoxity CC50 (concentration of 50% cell death), a dose response curve covering at least four different concentrations was done in K562 infection. The decrease of the percentage of the dengue positive cells was then plotted against the concentrations of inhibitors, using a nonlinear regression analysis to obtain the EC50. CC50 was calculated using the same method using the cell viability over the same range of inhibitor concentrations.

Data set [2] in a line: Cell viability of infected K562 cells by Celltiter Glo. It is filed as cell-based, human. Conditions: human, K562 cells infected with dengue NGC virus, K562 infection, same range of inhibitor concentrations, read-out: CC50 (concentration of 50% cell death). As to the method: as §1, §2
Data set [3] concerns dengue strain MY10340. Nature of the data set: Dengue infection of human PBMCs, FACS. To be noted: human PBMC, two days, enhancing antibodies, increasing concentration. Type of data set: cell-based, Dengue virus. As for the experimental part:
as §1
Statins are a safe and widely used drug for the treatment of hypercholesterolemia (12). The toxicity observed in K562 cells could be due to the specific effect of Statins in a cancer cell line (1,22). For avoiding the toxicity in cancer or transformed cell lines, health donors' PBMC were collected, and tested the effect of statin in PBMC infection was tested. PBMCs were infected with a clinically isolated dengue strain MY10340 for two days in the presence of enhancing antibodies from dengue positive plasma. The infection was assessed by FACS and plaque assay as for K562 infection.

Data set [4] deals with dengue strain MY10340. Nature of the data set: Live virus titer in PBMC infection by plaque assay. Type of data set: cell-based, Dengue virus. Conditions: human PBMC, two days, increasing concentration.
Protocol: PBMC (Peripheral Blood Mononuclear Cell) were prepared from buffy coat from healthy donors using ficoll gradient. […] For virus titer analysis, the level of live virus was determined by plaque assay in BHK-21 cells (ATCC) in triplicate.
For compound testing, K562 infection system was used. 50,000 K562 cells were plated in 96 well in 100 ul and infected the second day with 1 m.o.i of NGC virus for two days. Compounds were added together with the virus and the viral growth was measured by FACS with two antibodies, the anti-Dengue Envelope protein antibody (ATCC) (26) conjugated to Alexa 680 (Invitrogen) and the anti NS1 antibody (ATCC) conjugated to Alexa 488. The cell viability is measured by Celltiter Glo. The supernatant after infection were collected for plaque assay for live virus titer. For PBMC infection, conditions were the same as for K562 infection except 500,000 total cells were plated and an 1:10,000 diluted dengue IgG positive serum was added to the infection.
A further data set deals with K562 cells. Nature of the data set: Cell viability of infected K562 cells by Celltiter Glo. Type of data set: cell-based, human. To be noted: for CC50: K562 infection, same range of inhibitor concentrations, read-out: CC50 (concentration of 50% cell death). As for the experimental part: as §1, §2
Data set [5] concerns Dengue NGC virus. Nature of the data set: Plaque assay of supernatant after K562 infection. Type of data set: cell-based. To be noted: infected K562 cells, 48 hours, 0.1 μM and 10 μM. As for the experimental part: The human lung-epithelial carcinoma A549 cell-line and hematopoetic cell line K562 are from ATCC and cultured according to instruction. PBMC (Peripheral Blood Mononuclear Cell) were prepared from buffy coat from healthy donors using ficoll gradient. The A549 dengue NGC replicon cells used for the work contains non-infectious, self replicating Dengue virus with a Renilla luciferase reporter under puromycin selection (24). Cells were cultured in F12 (Hams) medium (Invitrogen, Carlsbad, Calif.) supplemented with 10% fetal bovine serum (FBS) and puromycin (10-50 μg/ml). Cells were assayed in F12 medium supplement with 2% FBS without puromycin. Dengue NGC virus (GenBank number M29095) and the Malaysian clinical isolates MY10340 (from Shamala Devi, University of Malaya, Malaysia) were propagated in insect cells C6/36 (ATCC). For virus titer analysis, the level of live virus was determined by plaque assay in BHK-21 cells (ATCC) in triplicate.
as §1

[6] abbreviates: K562 cells, 1 m.o.i NGC virus, two days, decrease of percentage of dengue positive cells by FACS.

“Also recorded” adds a separate entry of the source. Like-named read-outs stand apart in the source and are kept apart here.

For the molecule `CC(C)n1c(/C=C/C(O)CC(O)CC(=O)O)c(-c2ccc(F)cc2)c2ccccc21` (stereo not drawn) [Fluvastatin], in the data set on Dengue NGC virus [1] (Dengue virus, K562, 48 h), the EC50 was over 50 µM. Besides, the CC50 at 2 days in data set [2] turned out to be 48.8 µM.

As for `CC[C@H](C)C(=O)O[C@H]1C[C@@H](C)C=C2C=C[C@H](C)[C@H](CC[C@@H]3C[C@@H](O)CC(=O)O3)[C@H]21` [Lovastatin], the EC50 in the data set on Dengue NGC virus [1] (48 h, K562 cells, 1 m.o.i NGC virus, two days, decrease of percentage of dengue positive cells by FACS) is over 50 µM. Moreover, the CC50 at 2 days in data set [2] was 46.8 µM. In addition, the “percentage of infected cells” value in the data set on dengue strain MY10340 [3] is “decreased”. For the same molecule, the virus titer result with dengue strain MY10340 [4] was “decreased”.

Consider `CC(C)C[C@H](NC(=O)c1ccc(NCc2cnc[nH]2)cc1-c1cccc2ccccc12)C(=O)O` [GGTI 2133], for which the EC50 with Dengue NGC virus [1] (setting [6]) was over 50 µM. Also, the CC50 with K562 cells was over 50 µM.

Take Hymeglusin: the EC50 in the data set with Dengue NGC virus [1] (setting [6]) was determined as 4.5 µM. The “inhibition of viral growth / effect on infection” value in the data set with Dengue NGC virus [1] is “significantly inhibited”. In addition, the CC50 in the data set on K562 cells was about 50 µM.

On to `C=C(CC[C@]12O[C@H](C(=O)O)[C@@](O)(C(=O)O)[C@](C(=O)O)(O1)[C@H](OC(=O)/C=C/[C@@H](C)C[C@@H](C)CC)[C@H]2O)[C@@H](OC(C)=O)[C@H](C)Cc1ccccc1` [Zaragozic Acid, Zaragozic acid A], for which the entries for the “percent Dengue positive cells (E and NS1 double positive)” value in the data set on Dengue NGC virus [1] (0.1 μM ZGA) and in the data set with Dengue NGC virus [1] (10 μM ZGA) were 2.8% and 0.6%, respectively. Besides, in the data set with Dengue NGC virus [1] (setting [6]), the EC50 is 8.3 µM. Also, the “inhibition of viral growth / effect on infection” value in the data set on Dengue NGC virus [1] is on record as “significantly inhibited”. For the same molecule, the “effect on cell viability / cytotoxicity” value with K562 cells (K562 cells, dose range, 48 hours, listed as ZGA) is “no significant cytotoxicity; also recorded: no effect”. Moreover, the CC50 with K562 cells is over 50 µM. Moreover, the “fold less plaque than cells treated with DMSO alone” value in the data set with Dengue NGC virus [5] is recorded as 2-6 fold.

The record behind these values is patent US20100183613A1, “METHODS OF USING MEVALONATE DECARBOXYLASE (MVD) ANTAGONISTS” (NOVARTIS AG, priority 2008, published 2010).
